Laboratory results: US20050239656A1, “Pyridine compounds or salts thereof and herbicides containing the same” (priority 2002, published 2005)

test system: velvetleaf; test: Test Example 2: soil surface treatment, upland pot test; type: in vivo, Abutilon theophrasti MEDIC.; conditions: active ingredient 500 g/ha, observed day 21, 0 = non-treated, 100 = complete kill
Method in brief: (§1)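 A pre-emergence soil application: formulated compound at a predetermined active-ingredient dose, diluted in water to 1,500 L/ha, sprayed on upland soil a day after seeding in 1/170,000 ha pots; growth control rated visually, 0 (untreated level) to 100 (kill), at 20–28 days.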

CCC(CC)C(c1cnccc1C(F)(F)F)N(C)C(=O)Cc1ccccc1 (centres unmarked) [I-262] and CC(C)C(c1cnccc1C(F)(F)F)N(C)C(=O)Cc1cccs1 (centres unmarked) [I-258] are the same in “Growth controlling degree (%) Velvetleaf” value: 60% for the first, 60% for the second.

test system: corn; test: Test Example 1: foliage treatment, upland pot test; type: in vivo, Zea mays L.; conditions: crop, active ingredient 500 g/ha, observed 18th to 23rd day, 0 = non-treated, 100 = complete kill
Method in brief: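 Corn seeds were sown in upland field soil held in a 1/170,000 ha pot and grown to the 2.1 to 3.2 leaf stage. A wettable powder or emulsifiable concentrate of the test compound was diluted with water at 500 L/ha, given 0.1% (v/v) agricultural spreader, and sprayed onto the foliage with a small sprayer. Growth controlling degree (%) was scored visually 18th to 23rd days later, from 0 (non-treated) to 100 (complete kill).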

Compared with CCC(CC)C(c1cnccc1C(F)(F)F)N(C)C(=O)Cc1ccccc1 (centres unmarked) [I-262], CC(C)C(c1cnccc1C(F)(F)F)N(C)C(=O)Cc1cccs1 (centres unmarked) [I-258] is lower in “Growth controlling degree (%) Corn” value: 60% for the first, 10% for the second.

test system: rice; test: Test Example 2: soil surface treatment, upland pot test; type: in vivo, Oryza sativa L.; conditions: active ingredient 500 g/ha, observed day 21, 0 = non-treated, 100 = complete kill
Method in brief: as §1

Compared with CCC(CC)C(c1cnccc1C(F)(F)F)N(C)C(=O)Cc1ccccc1 (centres unmarked) [I-262], CC(C)C(c1cnccc1C(F)(F)F)N(C)C(=O)Cc1cccs1 (centres unmarked) [I-258] is lower in “Growth controlling degree (%) Rice” value: 50% for the first, 10% for the second.

test system: barnyardgrass; test: Test Example 1: foliage treatment, upland pot test; type: in vivo, Echinochloa crus-galli L.; conditions: active ingredient 500 g/ha, observed 18th to 23rd day, 0 = non-treated, 100 = complete kill
Method in brief: (§2)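 Upland pot test, foliar. Soybean 0.1–0.4 / wheat 1.3–2.4 / rice 1.2–2.6 / barnyardgrass 1.3–2.8 leaf stage at spraying; 500 L/ha carrier, 0.1% (v/v) spreader. Visual % control, 0 untreated to 100 dead, days 18–23.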

CCC(CC)C(c1cnccc1C(F)(F)F)N(C)C(=O)Cc1ccccc1 (centres unmarked) [I-262] and CC(C)C(c1cnccc1C(F)(F)F)N(C)C(=O)Cc1cccs1 (centres unmarked) [I-258] are the same in “Growth controlling degree (%) Barnyardgrass” value: 80% for the first, 80% for the second.

test system: soybean; test: Test Example 2: soil surface treatment, upland pot test; type: in vivo, Glycine max Merr.; conditions: active ingredient 500 g/ha, observed day 21, 0 = non-treated, 100 = complete kill
Method in brief: as §1

Compared with CCC(CC)C(c1cnccc1C(F)(F)F)N(C)C(=O)Cc1ccccc1 (centres unmarked) [I-262], CC(C)C(c1cnccc1C(F)(F)F)N(C)C(=O)Cc1cccs1 (centres unmarked) [I-258] is lower in “Growth controlling degree (%) Soyabean” value: 20% for the first, 10% for the second.

test system: redroot pigweed; test: Test Example 1: foliage treatment, upland pot test; type: in vivo, Amaranthus retroflexus L.; conditions: active ingredient 500 g/ha, observed 18th to 23rd day, 0 = non-treated, 100 = complete kill

Going from CCC(CC)C(c1cnccc1C(F)(F)F)N(C)C(=O)Cc1ccccc1 (centres unmarked) [I-262] to CC(C)C(c1cnccc1C(F)(F)F)N(C)C(=O)Cc1cccs1 (centres unmarked) [I-258], the “Growth controlling degree (%) Redroot pigweed” value rises from 70% to 80%.

test system: crabgrass; test: Test Example 1: foliage treatment, upland pot test; type: in vivo, Digitaria sanguinalis L.; conditions: active ingredient 500 g/ha, observed 18th to 23rd day, 0 = non-treated, 100 = complete kill

Going from CCC(CC)C(c1cnccc1C(F)(F)F)N(C)C(=O)Cc1ccccc1 (centres unmarked) [I-262] to CC(C)C(c1cnccc1C(F)(F)F)N(C)C(=O)Cc1cccs1 (centres unmarked) [I-258], the “Growth controlling degree (%) Crabgrass” value rises from 80% to 90%.

test system: velvetleaf; test: Test Example 1: foliage treatment, upland pot test; type: in vivo, Abutilon theophrasti MEDIC.; conditions: active ingredient 500 g/ha, observed 18th to 23rd day, 0 = non-treated, 100 = complete kill

CCC(CC)C(c1cnccc1C(F)(F)F)N(C)C(=O)Cc1ccccc1 (centres unmarked) [I-262] and CC(C)C(c1cnccc1C(F)(F)F)N(C)C(=O)Cc1cccs1 (centres unmarked) [I-258] are the same in “Growth controlling degree (%) Velvetleaf” value: 90% for the first, 90% for the second.

test system: crabgrass; test: Test Example 2: soil surface treatment, upland pot test; type: in vivo, Digitaria sanguinalis L.; conditions: active ingredient 500 g/ha, observed day 21, 0 = non-treated, 100 = complete kill
Method in brief: as §1

CCC(CC)C(c1cnccc1C(F)(F)F)N(C)C(=O)Cc1ccccc1 (centres unmarked) [I-262] and CC(C)C(c1cnccc1C(F)(F)F)N(C)C(=O)Cc1cccs1 (centres unmarked) [I-258] are the same in “Growth controlling degree (%) Crabgrass” value: 100% for the first, 100% for the second.

test system: soybean; test: Test Example 1: foliage treatment, upland pot test; type: in vivo, Glycine max Merr.; conditions: crop, active ingredient 500 g/ha, observed 18th to 23rd day, 0 = non-treated, 100 = complete kill
Method in brief: as §2

First: CCC(CC)C(c1cnccc1C(F)(F)F)N(C)C(=O)Cc1ccccc1 (centres unmarked) [I-262]
Second: CC(C)C(c1cnccc1C(F)(F)F)N(C)C(=O)Cc1cccs1 (centres unmarked) [I-258]
The “Growth controlling degree (%) Soybean” value of the first is higher: 80% for the first, 70% for the second.

test system: green foxtail; test: Test Example 2: soil surface treatment, upland pot test; type: in vivo, Setaria viridis L.; conditions: active ingredient 500 g/ha, observed day 21, 0 = non-treated, 100 = complete kill
Method in brief: as §1

Going from CCC(CC)C(c1cnccc1C(F)(F)F)N(C)C(=O)Cc1ccccc1 (centres unmarked) [I-262] to CC(C)C(c1cnccc1C(F)(F)F)N(C)C(=O)Cc1cccs1 (centres unmarked) [I-258], the “Growth controlling degree (%) Green foxtail” value rises from 95% to 100%.

test system: prickly sida; test: Test Example 1: foliage treatment, upland pot test; type: in vivo, Sida spinosa L.; conditions: active ingredient 500 g/ha, observed 18th to 23rd day, 0 = non-treated, 100 = complete kill

Compared with CCC(CC)C(c1cnccc1C(F)(F)F)N(C)C(=O)Cc1ccccc1 (centres unmarked) [I-262], CC(C)C(c1cnccc1C(F)(F)F)N(C)C(=O)Cc1cccs1 (centres unmarked) [I-258] is lower in “Growth controlling degree (%) Prickly sida” value: 95% for the first, 70% for the second.

test system: barnyardgrass; test: Test Example 3: paddy pot test, application under submerged conditions; type: in vivo, Echinochloa crus-galli L.; conditions: active ingredient 250 g/ha; submerged application at 0.5 leaf stage; visually observed 14 days after application; 0 = non-treated, 100 = complete kill
Method in brief: (§3)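 Barnyardgrass and japanese bulrush sown in flooded paddy soil in greenhouse pots, japanese ribbon wapato tubers planted 1–2 days later; water depth kept at 3–4 cm. Diluted wettable powder or emulsifiable concentrate applied into water at 0.5-leaf or primary-leaf stage at set active-ingredient doses. Growth control scored visually at 14 days, 0 (untreated) to 100% (complete kill).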

Compared with CCC(CC)C(c1cnccc1C(F)(F)F)N(C)C(=O)Cc1ccccc1 (centres unmarked) [I-262], CC(C)C(c1cnccc1C(F)(F)F)N(C)C(=O)Cc1cccs1 (centres unmarked) [I-258] is higher in “Growth controlling degree (%) Barnyardgrass” value: 98% for the first, 100% for the second.

test system: corn; test: Test Example 2: soil surface treatment, upland pot test; type: in vivo, Zea mays L.; conditions: active ingredient 500 g/ha, observed day 21, 0 = non-treated, 100 = complete kill
Method in brief: as §1

Going from CCC(CC)C(c1cnccc1C(F)(F)F)N(C)C(=O)Cc1ccccc1 (centres unmarked) [I-262] to CC(C)C(c1cnccc1C(F)(F)F)N(C)C(=O)Cc1cccs1 (centres unmarked) [I-258], the “Growth controlling degree (%) Corn” value falls from 40% to 0%.

test system: redroot pigweed; test: as above; type: in vivo, Amaranthus retroflexus L.; conditions: active ingredient 500 g/ha, observed day 21, 0 = non-treated, 100 = complete kill
Method in brief: as §1

Going from CCC(CC)C(c1cnccc1C(F)(F)F)N(C)C(=O)Cc1ccccc1 (centres unmarked) [I-262] to CC(C)C(c1cnccc1C(F)(F)F)N(C)C(=O)Cc1cccs1 (centres unmarked) [I-258], the “Growth controlling degree (%) Redroot pigweed” value rises from 70% to 90%.

test system: green foxtail; test: Test Example 1: foliage treatment, upland pot test; type: in vivo, Setaria viridis L.; conditions: active ingredient 500 g/ha, observed 18th to 23rd day, 0 = non-treated, 100 = complete kill

Going from CCC(CC)C(c1cnccc1C(F)(F)F)N(C)C(=O)Cc1ccccc1 (centres unmarked) [I-262] to CC(C)C(c1cnccc1C(F)(F)F)N(C)C(=O)Cc1cccs1 (centres unmarked) [I-258], the “Growth controlling degree (%) Green foxtail” value falls from 70% to 50%.

test system: rice (var. Nihonbare); test: Test Example 3: paddy pot test, transplanted rice; type: in vivo, Oryza sativa L.; conditions: active ingredient 250 g/ha, applied 4th day after transplantation, visually observed 21st day after application, 0 = non-treated, 100 = complete kill
Method in brief: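 Rice (var. Nihonbare) at 2 leaf stage transplanted 3 cm deep into puddled paddy soil under 3–4 cm flooding; on day 4 after transplanting, diluted wettable powder or emulsifiable concentrate applied by pipette under submerged conditions at a set active-ingredient dose. Growth scored visually 21 days after application, 0 (untreated) to 100 (complete kill) %.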

Compared with CCC(CC)C(c1cnccc1C(F)(F)F)N(C)C(=O)Cc1ccccc1 (centres unmarked) [I-262], CC(C)C(c1cnccc1C(F)(F)F)N(C)C(=O)Cc1cccs1 (centres unmarked) [I-258] is higher in “Growth controlling degree (%) Rice” value: 0% for the first, 30% for the second.

test system: japanese bulrush; test: Test Example 3: paddy pot test, application under submerged conditions; type: in vivo, Scirpus juncoides; conditions: active ingredient 250 g/ha; submerged application at 0.5 leaf stage; visually observed 14 days after application; 0 = non-treated, 100 = complete kill
Method in brief: as §3

Compared with CCC(CC)C(c1cnccc1C(F)(F)F)N(C)C(=O)Cc1ccccc1 (centres unmarked) [I-262], CC(C)C(c1cnccc1C(F)(F)F)N(C)C(=O)Cc1cccs1 (centres unmarked) [I-258] is higher in “Growth controlling degree (%) Japanese bulrush” value: 95% for the first, 98% for the second.

test system: prickly sida; test: Test Example 2: soil surface treatment, upland pot test; type: in vivo, Sida spinosa L.; conditions: active ingredient 500 g/ha, observed day 21, 0 = non-treated, 100 = complete kill
Method in brief: as §1

Compared with CCC(CC)C(c1cnccc1C(F)(F)F)N(C)C(=O)Cc1ccccc1 (centres unmarked) [I-262], CC(C)C(c1cnccc1C(F)(F)F)N(C)C(=O)Cc1cccs1 (centres unmarked) [I-258] is higher in “Growth controlling degree (%) Prickly sida” value: 90% for the first, 100% for the second.

test system: japanese ribbon wapato; test: Test Example 3: paddy pot test, application under submerged conditions; type: in vivo, Sagittaria pygniaea; conditions: active ingredient 250 g/ha; submerged application at primary leaf stage; visually observed 14 days after application; 0 = non-treated, 100 = complete kill
Method in brief: as §3

Compared with CCC(CC)C(c1cnccc1C(F)(F)F)N(C)C(=O)Cc1ccccc1 (centres unmarked) [I-262], CC(C)C(c1cnccc1C(F)(F)F)N(C)C(=O)Cc1cccs1 (centres unmarked) [I-258] is higher in “Growth controlling degree (%) Japanese ribbon wapato” value: 30% for the first, 70% for the second.

test system: rice; test: Test Example 1: foliage treatment, upland pot test; type: in vivo, Oryza sativa L.; conditions: crop, active ingredient 500 g/ha, observed 18th to 23rd day, 0 = non-treated, 100 = complete kill
Method in brief: as §2

First: CCC(CC)C(c1cnccc1C(F)(F)F)N(C)C(=O)Cc1ccccc1 (centres unmarked) [I-262]
Second: CC(C)C(c1cnccc1C(F)(F)F)N(C)C(=O)Cc1cccs1 (centres unmarked) [I-258]
The “Growth controlling degree (%) Rice” value of the first is higher: 35% for the first, 10% for the second.

test system: barnyardgrass; test: Test Example 2: soil surface treatment, upland pot test; type: in vivo, Echinochloa crus-galli L.; conditions: active ingredient 500 g/ha, observed day 21, 0 = non-treated, 100 = complete kill
Method in brief: as §1

Going from CCC(CC)C(c1cnccc1C(F)(F)F)N(C)C(=O)Cc1ccccc1 (centres unmarked) [I-262] to CC(C)C(c1cnccc1C(F)(F)F)N(C)C(=O)Cc1cccs1 (centres unmarked) [I-258], the “Growth controlling degree (%) Barnyardgrass” value rises from 20% to 100%.
